Experiments:
[1] = Thermal stability by TG/DTA measurement; type: physicochemical; details: for Weight reduction temperatures higher than / thermal stability improved compared with Z-DOL: compared with Z-DOL (Comparative Example 5C); for Weight reduction temperatures higher than / thermal stability improved compared with Z-TETRAOL: compared with Z-TETRAOL (Comparative Example 6C); for Weight reduction temperature 5% / Weight reduction temperature 10% / Weight reduction temperature 20%: TG/DTA, 30-600° C., 10° C./min, air 200 mL/min
[2] = Solubility test in fluorine-based solvent Vertrel XF; type: physicochemical; details: 25° C., 0.2 parts by mass added to 100 parts, ultrasonic 5 minutes, left 1 day, visually observed
Protocol: (§1) To a predetermined amount of Vertrel XF or n-hexane, the ionic liquid, Z-DOL, or Z-TETRAOL was added. Ultrasonic waves were applied to the resultant mixture for 5 minutes, followed by leaving the mixture to stand for 1 day. The solubility was visually observed.
(§2) Specifically, 0.2 parts by mass of the ionic liquid, Z-DOL, or Z-TETRAOL was added to 100 parts by mass of Vertrel XF (25° C.). After applying ultrasonic waves to the resultant for 5 minutes, the resultant was left to stand for 1 day. Thereafter, the solubility was visually observed and evaluated based on the following evaluation criteria.
[Evaluation Criteria (Fluorine-Based Solvent)]
• 0.2% by mass or greater:
Soluble with addition of 0.2 parts by mass • Less than 0.2% by mass:
Insoluble with addition of 0.2 parts by mass
(§3) Note that, the solubility was visually observed, and it was judged as soluble when it was transparent. Moreover, it was judged as not soluble (insoluble) when it was opaque or insoluble components were observed.

[3] = Solubility test in hydrocarbon-based solvent n-hexane; type: physicochemical; details: 25° C., 0.5 parts by mass added to 100 parts, ultrasonic 5 minutes, left 1 day, visually observed
Protocol: as §1
as §2, with “In case of n-hexane, similarly, 0.5” for “Specifically, 0.2”, “n-hexane at 25° C.” for “Vertrel XF (25° C.).”
[Evaluation Criteria (Hydrocarbon-Based Solvent)]
• 0.5% by mass or greater:
Soluble with addition of 0.5 parts by mass • Less than 0.5% by mass:
Insoluble with addition of 0.5 parts by mass
as §3

[4] = in acetonitrile; cited from earlier work

Molecule	Weight reduction temperatures higher than / thermal stability improved compared with Z-DOL [1] [°C]	Weight reduction temperatures higher than / thermal stability improved compared with Z-TETRAOL [1] [°C]	Solubility Vertrel XF [2] [% by mass]	Solubility n-hexane [3] [% by mass]	Weight reduction temperature 5% [1] [°C]	Weight reduction temperature 10% [1] [°C]	Weight reduction temperature 20% [1] [°C]	other results
CCCCCCCCCCCCCCCCCCn1cc[n+](CCCCCCCCCCCCCCCCCC)c1CCCCCCCCCCCCCCCCC.O=S(=O)([N-]S(=O)(=O)C(F)(F)C(F)(F)C(F)(F)C(F)(F)F)C(F)(F)C(F)(F)C(F)(F)C(F)(F)F	≥ 140	≥ 60	–	–	–	–	–	–
CCCCCCCCCCCCCCCCCC[n+]1ccn(CCCC)c1.O=S1(=O)[N-]S(=O)(=O)C(F)(F)C(F)(F)C1(F)F [Comp. Ex. 2A, hexafluorocyclopropane-1,3-bis(sulfonyl)imide-1-butyl-3-n-octadecylimidazolium, reference compound]	–	–	< 0.2	< 0.5	–	–	–	–
nonafluorobutanesulfonic acid-1,3-didodecyl-2-undecylimidazolium	≥ 130	≥ 40	–	–	287.9	331.8	378.4	–
CCCCCCCCCCCCn1cc[n+](CCCCCCCCCCCC)c1CCCCCCCCCCC.O=S(=O)([N-]S(=O)(=O)C(F)(F)C(F)(F)C(F)(F)C(F)(F)F)C(F)(F)C(F)(F)C(F)(F)C(F)(F)F	≥ 170	≥ 90	–	–	–	–	–	–
CCCCCCCCCCCCCCCCCCn1cc[n+](CCCCCCCCCCCCCCCCCC)c1CCCCCCCCCCCCCCCCC.O=S(=O)([N-]S(=O)(=O)C(F)(F)C(F)(F)C(F)(F)C(F)(F)F)C(F)(F)C(F)(F)C(F)(F)C(F)(F)F [Ex. 4A, bis(nonafluorobutanesulfonyl)imide-1,3-dioctadecyl-2-heptadecylimidazolium]	–	–	< 0.2	≥ 0.5	300.1	337.3	385.8	Solubility Vertrel XF ([2]; listed as Example 4A): less than 0.2 % by mass; Solubility n-hexane ([3]; listed as Example 4A): ≥ 0.5 % by mass
nonafluorobutanesulfonic acid-1,3-dioctadecyl-2-heptadecylimidazolium	≥ 110	≥ 40	–	–	279.7	310.9	361.9	–
CCCCCCCCCCCCn1cc[n+](CCCCCCCCCCCC)c1CCCCCCCCCCC.O=S(=O)([N-]S(=O)(=O)C(F)(F)C(F)(F)C(F)(F)C(F)(F)F)C(F)(F)C(F)(F)C(F)(F)C(F)(F)F [Ex. 2A, bis(nonafluorobutanesulfonyl)imide-1,3-didodecyl-2-undecylimidazolium]	–	–	≥ 0.2	≥ 0.5	335.7	368.9	395.7	Solubility Vertrel XF ([2]; listed as Example 2A): ≥ 0.2 % by mass; Solubility n-hexane ([3]; listed as Example 2A): ≥ 0.5 % by mass
O=S(=O)(C(S(=O)(=O)C(F)(F)F)S(=O)(=O)C(F)(F)F)C(F)(F)F [(CF3SO2)3CH]	–	–	–	–	–	–	–	pKa [4]: −3.7
